#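 Test compounds were applied to cells in 96-well plates for 48 hours at 5 doses. GI50: concentration for 50% inhibition of growth.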 Activity calls are given as the source filed them. No stated cut-off is given here; in the data, active = GI50 up to about 1.1 µM and inactive = higher.
# Columns and labels:
# Test in all cases: NCI-60 cell line screen, 48 h
# KM12 = tested on: KM12
# UACC-257 = tested on: UACC-257
# OVCAR-8 = tested on: OVCAR-8
# Malme-3M = tested on: Malme-3M
# SN12C = tested on: SN12C
# SR = tested on: SR
# OVCAR-4 = tested on: OVCAR-4
# UACC-62 = tested on: UACC-62
# CCRF-CEM = tested on: CCRF-CEM
# ACHN = tested on: ACHN
# LOX IMVI = tested on: LOX IMVI
# HL-60 = tested on: HL-60
# SF-539 = tested on: SF-539
# NCI-H460 = tested on: NCI-H460
# HOP-18 = tested on: HOP-18
# UO-31 = tested on: UO-31
# OVCAR-3 = tested on: OVCAR-3
# DMS-114 = tested on: DMS-114
# NCI-H522 = tested on: NCI-H522
# SK-MEL-5 = tested on: SK-MEL-5
# SF-295 = tested on: SF-295
# SF-268 = tested on: SF-268
# LXFL 529 = tested on: LXFL 529
# U-251 = tested on: U-251
# DLD-1 = tested on: DLD-1
# HCC 2998 = tested on: HCC 2998
# A498 = tested on: A498
# NCI-H23 = tested on: NCI-H23
# MOLT-4 = tested on: MOLT-4
# K562 = tested on: K562
# SNB-78 = tested on: SNB-78
# HCT-116 = tested on: HCT-116
# SNB-75 = tested on: SNB-75
# NCI-H226 = tested on: NCI-H226
# SW-620 = tested on: SW-620
# KM-20L2 = tested on: KM-20L2
# M14 = tested on: M14
# HT-29 = tested on: HT-29
# SK-MEL-2 = tested on: SK-MEL-2
# IGROV-1 = tested on: IGROV-1
# SNB-19 = tested on: SNB-19
# CAKI-1 = tested on: CAKI-1
# A549 = tested on: A549
# XF498 = tested on: XF498
# OVCAR-5 = tested on: OVCAR-5
# RXF 631 = tested on: RXF 631
# SK-MEL-28 = tested on: SK-MEL-28
# SK-OV-3 = tested on: SK-OV-3
# M19-MEL = tested on: M19-MEL
# HCT-15 = tested on: HCT-15
# TK-10 = tested on: TK-10
# COLO 205 = tested on: COLO 205
# HOP-62 = tested on: HOP-62
# 786-0 = tested on: 786-0
# EKVX = tested on: EKVX
# RXF 393 = tested on: RXF 393
# DMS-273 = tested on: DMS-273
# HOP-92 = tested on: HOP-92
# RPMI-8226 = tested on: RPMI-8226
smiles,measurement,setting,value
CCOP(=O)(OCC)C(C(=O)OC)C(=O)C(=O)Nc1cccc([N+](=O)[O-])c1 (stereo not given),GI50,KM12,> 100 µM (inactive)
same,GI50,UACC-257,> 100 µM (inactive)
same,GI50,OVCAR-8,> 100 µM (inactive)
same,GI50,Malme-3M,> 100 µM (inactive)
same,GI50,SN12C,> 100 µM (inactive)
same,GI50,SR,> 100 µM (inactive)
same,GI50,OVCAR-4,> 100 µM (inactive)
same,GI50,UACC-62,> 100 µM (inactive)
same,GI50,CCRF-CEM,> 100 µM (inactive)
same,GI50,ACHN,> 100 µM (inactive)
same,GI50,LOX IMVI,> 100 µM (inactive)
same,GI50,HL-60,> 100 µM (inactive)
same,GI50,SF-539,> 100 µM (inactive)
same,GI50,NCI-H460,> 100 µM (inactive)
same,GI50,HOP-18,> 100 µM (inactive)
same,GI50,UO-31,> 100 µM (inactive)
same,GI50,OVCAR-3,> 100 µM (inactive)
same,GI50,DMS-114,> 100 µM (inactive)
same,GI50,NCI-H522,> 100 µM (inactive)
same,GI50,SK-MEL-5,> 100 µM (inactive)
same,GI50,SF-295,> 100 µM (inactive)
same,GI50,SF-268,> 100 µM (inactive)
same,GI50,LXFL 529,> 100 µM (inactive)
same,GI50,U-251,> 100 µM (inactive)
same,GI50,DLD-1,> 100 µM (inactive)
same,GI50,HCC 2998,> 100 µM (inactive)
same,GI50,A498,> 100 µM (inactive)
same,GI50,NCI-H23,> 100 µM (inactive)
same,GI50,MOLT-4,> 100 µM (inactive)
same,GI50,K562,> 100 µM (inactive)
same,GI50,SNB-78,> 100 µM (inactive)
same,GI50,HCT-116,> 100 µM (inactive)
same,GI50,SNB-75,> 100 µM (inactive)
same,GI50,NCI-H226,> 100 µM (inactive)
same,GI50,SW-620,> 100 µM (inactive)
same,GI50,KM-20L2,> 100 µM (inactive)
same,GI50,M14,> 100 µM (inactive)
same,GI50,HT-29,> 100 µM (inactive)
same,GI50,SK-MEL-2,> 100 µM (inactive)
same,GI50,IGROV-1,> 100 µM (inactive)
same,GI50,SNB-19,> 100 µM (inactive)
same,GI50,CAKI-1,> 100 µM (inactive)
same,GI50,A549,> 100 µM (inactive)
same,GI50,XF498,> 100 µM (inactive)
same,GI50,OVCAR-5,> 100 µM (inactive)
same,GI50,RXF 631,> 100 µM (inactive)
same,GI50,SK-MEL-28,> 100 µM (inactive)
same,GI50,SK-OV-3,> 100 µM (inactive)
same,GI50,M19-MEL,> 100 µM (inactive)
same,GI50,HCT-15,> 100 µM
same,GI50,TK-10,> 100 µM (inactive)
same,GI50,COLO 205,> 100 µM (inactive)
same,GI50,HOP-62,> 100 µM (inactive)
same,GI50,786-0,> 100 µM (inactive)
same,GI50,EKVX,> 100 µM (inactive)
same,GI50,RXF 393,> 100 µM (inactive)
same,GI50,DMS-273,> 100 µM (inactive)
[O-][n+]1c2cc3c(cc2[n+]([O-])c2c(O)cccc21)CN(CCN1CCOCC1)C3,GI50,KM12,16.8 µM (inactive)
same,GI50,UACC-257,23.4 µM (inactive)
same,GI50,OVCAR-8,12.1 µM (inactive)
same,GI50,Malme-3M,48.9 µM (inactive)
same,GI50,SN12C,29 µM (inactive)
same,GI50,SR,2.48 µM (inactive)
same,GI50,OVCAR-4,62.2 µM (inactive)
same,GI50,UACC-62,24.8 µM (inactive)
same,GI50,CCRF-CEM,6.12 µM (inactive)
same,GI50,HOP-92,5.7 µM (inactive)
same,GI50,ACHN,5.83 µM (inactive)
same,GI50,HL-60,5.7 µM (inactive)
same,GI50,NCI-H460,7.18 µM (inactive)
same,GI50,HOP-18,> 100 µM (inactive)
same,GI50,UO-31,10.6 µM (inactive)
same,GI50,OVCAR-3,18.7 µM (inactive)
same,GI50,DMS-114,8.41 µM (inactive)
same,GI50,NCI-H522,5.36 µM (inactive)
same,GI50,SK-MEL-5,56 µM (inactive)
same,GI50,SF-295,13.1 µM (inactive)
same,GI50,SF-268,11.2 µM (inactive)
same,GI50,LXFL 529,14.1 µM (inactive)
same,GI50,U-251,12.1 µM (inactive)
same,GI50,A498,44.6 µM (inactive)
same,GI50,NCI-H23,30.7 µM (inactive)
same,GI50,MOLT-4,4.43 µM (inactive)
same,GI50,K562,12 µM (inactive)
same,GI50,SNB-78,32.4 µM (inactive)
same,GI50,HCT-116,11.4 µM (inactive)
same,GI50,SNB-75,89.1 µM (inactive)
same,GI50,NCI-H226,41.9 µM (inactive)
same,GI50,KM-20L2,35.4 µM (inactive)
same,GI50,RPMI-8226,18.4 µM (inactive)
same,GI50,M14,49.5 µM (inactive)
same,GI50,HT-29,16 µM (inactive)
same,GI50,SK-MEL-2,20.7 µM (inactive)
same,GI50,IGROV-1,12.7 µM (inactive)
same,GI50,SNB-19,73.5 µM (inactive)
same,GI50,CAKI-1,48.9 µM (inactive)
same,GI50,A549,34.9 µM (inactive)
same,GI50,XF498,12.5 µM (inactive)
same,GI50,OVCAR-5,38 µM (inactive)
same,GI50,RXF 631,> 100 µM (inactive)
same,GI50,SK-MEL-28,> 100 µM (inactive)
same,GI50,SK-OV-3,17.1 µM (inactive)
same,GI50,M19-MEL,14.5 µM (inactive)
same,GI50,HCT-15,27.4 µM
same,GI50,TK-10,27.4 µM (inactive)
same,GI50,COLO 205,14.5 µM (inactive)
same,GI50,786-0,16.8 µM (inactive)
same,GI50,EKVX,14.9 µM (inactive)
same,GI50,RXF 393,16.1 µM (inactive)
same,GI50,DMS-273,53.6 µM (inactive)

# Reference: ChEMBL document CHEMBL1201862, “PubChem BioAssay data set” (2004)
